row,Structure (SMILES),melting point [°C]
1,O=C(O)c1ccc(NS(=O)(=O)c2ccc(F)c(Cl)c2)cc1,240 to 242
2,O=C(O)c1cn(Cc2ccccc2)nc1-c1ccc(Cl)cc1,162 to 165
3,NS(=O)(=O)C(F)F,59 to 61
4,Cc1nn(CC(=O)O)c(C)c1/C=N/O,203 to 205
5,NNc1nccc(N2CCOCC2)n1,146 to 148
6,N#Cc1cc([N+](=O)[O-])ccc1S(=O)(=O)Cl,99 to 101
7,Nc1ccnn1-c1ccc([N+](=O)[O-])cc1,138 to 140
8,CCCS(=O)(=O)N1CCCCC1C(=O)O (centres undefined),84 to 86
9,CC(C)(C)OC(=O)NC1CCN(C2CCNC2)CC1 (centres undefined),108 to 110
10,NC(=O)CC1CCCCN1 (centres undefined),108 to 110
11,O=C(O)CNC(=O)c1cc2c(s1)CCCC2,177 to 179
12,COc1ccc(F)cc1CCl,52 to 53
13,O=c1[nH]cc(S(=O)(=O)Cl)c(=O)[nH]1,155 to 157
14,O=C(CCl)c1ccc(CC(=O)N2CCOCC2)s1,136 to 138
15,O=C(Nc1ccccc1C(=O)O)c1ccccc1I,204 to 206
16,CC(C)CCNC(N)=S,93 to 95
17,O=C(O)c1cccc2[nH]c(=O)oc12,329 to 331
18,NNC(=O)CN1CCCc2ccccc21,107 to 109
19,CC(C)C(NC(=O)C=Cc1ccc(C(N)=O)cc1)C(=O)O (centres undefined),235 to 237
20,CCC1C(=O)NCCN1C(N)=S (centres undefined),216 to 218
21,Cn1[nH]c(-c2ccco2)c(-c2ccc3c(c2)OCO3)c1=N,140 to 142
22,CC(=O)NC1CCC(=O)CC1,136 to 140
23,O=C1CCC(=O)N1CCBr,53 to 55
24,Cc1nn(C(F)F)c(C)c1CO,86 to 88
25,O=C(O)C1CCCS1 (centres undefined),48 to 50
26,CC(C)NS(=O)(=O)c1ccccc1C(=O)O,111 to 113

row,Structure (SMILES),melting point [°C]
1,NC1CCC(c2nc(-c3ccccc3)n[nH]2)CC1 (centres undefined),163 to 165
2,O=C1NC(=O)C(=O)C(=O)N1,255 to 257
3,Oc1ccc2[nH]ncc2c1,184 to 186
4,CC(C)(C)OC(=O)NC1CCC(O)CC1 (centres undefined),169 to 171
5,O=C(O)c1ccc2c3c(cccc13)CC2,220 to 223
6,O=C(O)C1CCC(n2cccc2)CC1 (centres undefined),143 to 145
7,CN(C)S(=O)(=O)c1ccc(N2CCOCC2)c(C(=O)O)c1,218 to 220
8,O=C(O)c1ccc(-c2nc(C3CC3)n[nH]2)cc1,237 to 239
9,c1ccc(-c2cn[nH]c2)cc1,229 to 231
10,CC(C)(C)OC(=O)N1CC(OCCC(=O)O)C1,52 to 54
11,Clc1cncc(-n2cncn2)n1,109 to 111
12,N#Cc1ccc(CNC(=O)CCl)cc1,142 to 144
13,CC1(O)CCc2ccccc2C1 (centres undefined),39 to 41
14,O=C(O)C=Cc1nc2ccccc2s1,222 to 224
15,NNC(=O)C1Cc2ccccc2CN1Cc1ccccc1 (centres undefined),128 to 130
16,O=C(O)c1ccccc1Cc1nc2ccccc2c(=O)[nH]1,283 to 285
17,CC(C)n1nc(C(=O)O)c2ccccc2c1=O,142 to 144
18,c1cc2c(s1)C1(CCNCC1)OCC2,95 to 97
19,Cc1ncccc1C(=O)O,231 to 232
20,Nc1ccc(S(=O)(=O)Nc2cccnc2)cc1,256 to 258
21,COc1ccc(-c2nnc(Cl)c3ccccc23)cc1,148 to 150
22,Cc1cc(C(=O)O)c(C)n1C1CCCCC1,204 to 206
23,CC(C)CC(=O)NC(C(=O)O)C(C)C (centres undefined),186 to 188
24,O=C(O)CC=Cc1ccccc1F,54 to 56
25,COc1ccc(CCN)c(O)c1,98 to 100
26,N#CN=C1CCCN1,126 to 128

row,Structure (SMILES),melting point [°C]
1,c1ncn(C2CCNCC2)n1,97 to 99
2,Clc1cnc2ccccc2n1,47 to 50
3,O/N=C(\Cc1nccn1C(F)F)c1ccccc1,150 to 152
4,N#Cc1cccc(NC(=O)CCl)c1,143 to 145
5,CCN1CCc2nc3ccccc3c(C(=O)O)c2C1,278 to 280
6,CC(=O)Nc1cccc2c1NCCC2,108 to 110
7,Clc1nc(CN2CCOCC2)nc2sc3c(c12)CCC3,103 to 107
8,CC1CCCC(NC(=O)OC(C)(C)C)(C(=O)O)C1 (centres undefined),149 to 151
9,O=C(O)c1cccn1-c1ccc(I)cc1,199 to 201
10,CCCC(C)NC(=O)C(C)Cl (centres undefined),51 to 53
11,CN(CC(=O)O)C(=O)Nc1cccc([N+](=O)[O-])c1,157 to 159
12,O=C(O)c1cc2sc3ccccc3c2s1,249 to 251
13,CC(C)NS(=O)(=O)Cc1ccc(C#N)cc1,158 to 160
14,Cn1cc(S(=O)(=O)N2CCOCC2)cc1C(=O)NC(=O)CCl,229 to 231
15,O=C(O)c1ccc(Oc2cccnc2)cc1,204 to 206
16,O=C(O)CNc1nc2ccccc2s1,174 to 176
17,O=C(O)/C=C/c1cccc(Cl)c1Cl,233 to 235
18,CC(C)CN1C(=O)NC(=O)C1=O,145 to 148
19,c1ccc(CC2CCN(c3ncnc4sccc34)CC2)cc1,124 to 126
20,CCOC(=O)N1CCC(NC(N)=S)CC1,160 to 162
21,N#CCSc1ccc(C(=O)O)cc1,269 to 271
22,Cc1nccc(C(=O)O)n1,206 to 208
23,O=C(Cc1ccccc1)c1nc2ccccc2s1,110 to 112
24,CN(CCCC(=O)O)S(=O)(=O)c1ccc(F)cc1,74 to 76

# More lines, now with the values ahead:
row,melting point [°C],Structure (SMILES)
1,167 to 169,COC(=O)c1c(O)cc(=O)n2c1CCC2
2,209 to 211,CCS(=O)(=O)c1ccc2oc(N)nc2c1
3,193 to 195,COc1cc(C(=O)O)ccc1OCC(=O)NC(C)C
4,212 to 214,COc1ccc(-c2ccc(C(=O)O)c(F)c2)c(F)c1
5,57 to 59,Cc1cccc(-c2nnc(CCl)o2)c1
6,79 to 81,CCOC(=O)Cn1nc(C)c(C=O)c1C
7,59 to 61,Cc1cc(C)c([N+](=O)[O-])c(Cl)n1
8,124 to 126,CCCCc1ccc(Nc2nnc(S)s2)cc1
9,189 to 191,Cc1cccc(Cn2cccc(C(=O)O)c2=O)c1
10,201 to 203,CCOc1ccc(C(=O)O)cc1[N+](=O)[O-]
11,139 to 141,COCc1cccc2sc(N)nc12
12,66 to 68,CS(=O)(=O)NCc1cccc(Br)c1
13,215 to 217,Nc1nc(Br)cn2ccnc12
14,66 to 68,N#Cc1cc(Cl)ccc1OCC(F)(F)F
15,114 to 116,O=Cc1cc(F)cc2cccnc12
16,167 to 169,Nc1ccc2[nH]c(=O)[nH]c2c1
17,93 to 97,Cc1cccc(Oc2ccc(Cl)cc2N)c1
18,259 to 261,COc1ccc(C(=O)Nc2ccc(C(=O)O)cc2)cc1OC
19,145 to 147,O=C(O)CCOc1cc(Cl)ccc1Cl
20,225 to 227,COc1ccc(-c2cc(C(=O)O)[nH]n2)cc1OC
21,52 to 54,CCOC(=O)COc1ccc(C(C)=O)cc1
22,136 to 138,CC(C)(C)c1ccc(S(N)(=O)=O)cc1
23,175 to 177,COc1ccccc1-c1nnc(N)o1

row,melting point [°C],Structure (SMILES)
1,142 to 144,NC(=O)CCn1ccc(N)n1
2,57 to 59,Cc1ccc(NS(=O)(=O)c2cc(N)ccc2Cl)c(C)c1
3,110 to 114,Nc1ncc(Cc2cc(Cl)ccc2Cl)s1
4,88 to 91,CCN(CC)S(=O)(=O)c1ccc(Cl)c([N+](=O)[O-])c1
5,153 to 155,Cc1ccc(C(=O)N(C)C)cc1O
6,92 to 94,CCCCn1c(N)cc(=O)n(C)c1=O
7,142 to 144,COc1ccc(Br)c(C(N)=S)c1
8,170 to 179,Nc1nnc(Cc2ccccc2)s1
9,171 to 173,Cn1c(=O)c2cc(S(=O)(=O)Cl)cnc2n(C)c1=O
10,69 to 71,CC(C)Oc1cccc(CNC(=O)CCl)c1
11,104 to 106,NCc1cccc(CN2CCCC(C(N)=O)C2)c1 (centres undefined)
12,206 to 208,CN(C)C(=O)c1ccc(S(N)(=O)=O)cc1
13,92 to 94,O=S(=O)(F)c1ccc(Br)cn1
14,112 to 114,CC(C)(C)OC(=O)Oc1ccc(N)cc1
15,30 to 32,CCOCCS(N)(=O)=O
16,91 to 93,Cc1ccc(-c2csc(CC#N)n2)cc1
17,170 to 172,CN(C)C(=O)Sc1cnc2c(c1)c(=O)n(C)c(=O)n2C
18,163 to 165,CCN(CC)c1ccc(-c2nnc(S)o2)cc1
19,80 to 82,Nc1ccn(-c2cccc(C(F)(F)F)c2)n1
20,159 to 161,Nc1cc(-c2ccc(I)cc2)no1
21,61 to 63,COC(=O)C(=O)CC(=O)c1ccccc1Br
22,177 to 179,N#Cc1ncc(C(=O)O)cc1Br
23,72 to 74,O=S(=O)(Cl)C1=Cc2ccc(OC(F)F)cc2CC1

row,melting point [°C],Structure (SMILES)
1,137 to 138,O=S(=O)(c1ccc(OCCBr)cc1)N1CCOCC1
2,71 to 73,NNc1ncccc1C(F)(F)F
3,50 to 52,CCOc1cc(N)c(Br)cc1OCC
4,53 to 55,COC(=O)c1c(N)cccc1F
5,42 to 44,CC(C)(O)c1ccc(Br)cc1
6,229 to 231,CC(C)C(=O)Nc1ccc(Cl)c(C(=O)O)c1
7,232 to 234,COc1ccc(C(N)C(=O)O)cc1 (centres undefined)
8,99 to 101,OCc1nnc(Cc2ccccc2Br)[nH]1
9,205 to 207,CC(C)c1ccc(-c2nnc(N)s2)cc1
10,194 to 196,COc1ccc(NC2=C(Cl)C(=O)N(c3ccc(C)cc3)C2=O)cc1
11,78 to 80,CCOC(=O)C(=O)c1csc(N)n1
12,104 to 106,COC(=O)c1ccc2c(Cl)ncnc2c1
13,41 to 43,Nc1ccc(Oc2cccc(Cl)c2)cc1
14,157 to 159,O=C(O)Cc1c[nH]c2ccc(Cl)cc12
15,119 to 121,Cc1nc(-c2ccc(Br)cc2)sc1C(C)O (centres undefined)
16,113 to 115,COC(=O)COc1ccc(O)cc1
17,246 to 248,O=C(O)c1cc(N2CCNC2=O)c(F)cc1F
18,195 to 197,Cn1cc(Br)c2cc[nH]c(=O)c21
19,80 to 82,NNC(=O)c1ccc(NS(=O)(=O)c2cccc([N+](=O)[O-])c2)cc1
20,221 to 223,Nc1ccnc2nc(C(F)(F)F)nn12
21,145 to 148,NS(=O)(=O)c1ccc(CCNC(=O)CCl)cc1
22,237 to 239,COc1ccc(Cc2nc3sc4c(c3c(=O)[nH]2)CCC4)cc1OC
